LC retention time data for 85 compounds are collected here from the RepoRT retention time repository.

The series is described as follows: HILIC, Waters ACQUITY UPLC BEH Amide, 100 × 2.1 mm, 1.7 µm; A: water + 0.125% formic acid + 10 mM ammonium formate; B: 5% water + 95% acetonitrile + 0.125% formic acid + 10 mM ammonium formate; gradient (min/%B) 0/100 2/100 7.7/70 9.5/40 10.25/30 12.75/100 17/100. The note with it: stereoisomer not certain.
Regarding `OCC(O)C(O)C(OC1OC(CO)C(O)C(O)C1O)C(O)CO` (stereo not given) [Lactitol], the LC retention time was 8.99 min.

Turning to `Nc1ccn(C2CSC(CO)O2)c(=O)n1` (stereo not given) [Lamivudine], the LC retention time came out at 3.4 min.

Consider `Nc1nnc(-c2cccc(Cl)c2Cl)c(N)n1` [Lamotrigine], for which the LC retention time worked out at 1.98 min.

On to `CC(C)OC(=O)CCCC=CCC1C(O)CC(O)C1CCC(O)CCc1ccccc1` (stereo not given) [Latanoprost], for which the LC retention time is 1.06 min.

As for `CCCCCCCCCCCC(=O)OC(CC(=O)[O-])C[N+](C)(C)C` [Lauroyl-L-carnitine], the LC retention time is 3.63 min.

For the compound `N#Cc1ccc(C(c2ccc(C#N)cc2)n2cncn2)cc1` [Letrozol], the LC retention time came to 0.98 min.

In the case of `CC(C)CC(N)C(=O)NC(C)C(=O)O` (stereo not given) [Leu-Ala], the LC retention time turned out to be 5 min.

Turning to `CC(C)CC(N)C(=O)NC(CCCN=C(N)N)C(=O)O` (stereo not given) [Leu-Arg], the LC retention time was 8.86 min.

Turning to `CC(C)CC(N)C(=O)N1CCCC1C(=O)O` (stereo not given) [Leu-Pro], the LC retention time was 7.32 min.

As for `CC(C)CC(N)C(=O)O` (stereo not given) [Leucine], the LC retention time came to 7.08 min.

Regarding `c1ccc(C2CN3CCSC3=N2)cc1` (stereo not given) [Levamisole], the LC retention time is 2.95 min.

With `CCC(C(N)=O)N1CCCC1=O` (stereo not given) [Levetiracetam], the LC retention time was found to be 1.45 min.

For `O=C(O)COCCN1CCN(C(c2ccccc2)c2ccc(Cl)cc2)CC1` (stereo not given) [Levocetirizine], the LC retention time came out at 2.9 min.

Regarding `C#CC1(O)CCC2C3CCC4=CC(=O)CCC4C3CCC21CC` (stereo not given) [Levonorgestrel], the LC retention time turned out to be 0.99 min.

As for `CCN1CCCC1CNC(=O)c1cc(S(N)(=O)=O)ccc1OC` (stereo not given) [Levosulpiride], the LC retention time was found to be 4.37 min.

Regarding `CCN(CC)CC(=O)Nc1c(C)cccc1C` [Lidocaine], the LC retention time came to 1.97 min.

Consider `C=C(C)C1CC=C(C)CC1` (stereo not given) [Limonene], for which the LC retention time worked out at 0.92 min.

In the case of `C=CC(C)(O)CCC=C(C)C` (stereo not given) [Linalool], the LC retention time is 0.97 min.

Turning to `CC(=O)NCC1CN(c2ccc(N3CCOCC3)c(F)c2)C(=O)O1` (stereo not given) [Linezolide], the LC retention time was determined as 1.15 min.

For the compound `CCCCCC=CCC=CCCCCCCCC(=O)OC(CC(=O)[O-])C[N+](C)(C)C` (stereo not given) [Linoleoylcarnitine], the LC retention time was found to be 3.1 min.

Take `O=C1N(c2ccccc2)c2ccccc2C1(Cc1ccncc1)Cc1ccncc1` [Linopirdine]: the LC retention time was 1.17 min.

For `NC(=O)CCCCC1CCSS1` (stereo not given) [Lipoamide], the LC retention time stood at 1.25 min.

Turning to `O=C1CC(c2ccc(O)cc2)Oc2cc(O)ccc21` (stereo not given) [Liquiritigenin], the LC retention time worked out at 1.3 min.

With `CN1C(CC(=O)c2ccccc2)CCCC1CC(O)c1ccccc1` (stereo not given) [Lobeline A], the LC retention time stood at 2.02 min.

As for `CN(CCCN1c2ccccc2CCc2ccccc21)CC(=O)c1ccc(Cl)cc1` [Lofepramine], the LC retention time came to 1.91 min.

For `CC(Oc1c(Cl)cccc1Cl)C1=NCCN1` (stereo not given) [Lofexidine], the LC retention time amounted to 2.65 min.

In the case of `COc1ccc(CN2CCN(C(c3ccc(F)cc3)c3ccc(F)cc3)CC2)c(OC)c1OC` [Lomerizine], the LC retention time amounted to 1.7 min.

For `CC(=O)CCCCn1cnc2c1c(=O)n(C)c(=O)n2C` [Lomifylline], the LC retention time is 1.09 min.

As to `CCOC(=O)N1CCC(=C2c3ccc(Cl)cc3CCc3cccnc32)CC1` [Loratadine], the LC retention time is 1.11 min.

In the case of `O=C1Nc2ccc(Cl)cc2C(c2ccccc2Cl)=NC1O` (stereo not given) [Lorazepam], the LC retention time was found to be 1.33 min.

For `CCCCc1nc(Cl)c(CO)n1Cc1ccc(-c2ccccc2-c2nn[nH]n2)cc1` [Losartan], the LC retention time was found to be 1.27 min.

Consider `CCOC(=O)OC1(C(=O)OCCl)CCC2C3CCC4=CC(=O)C=CC4(C)C3C(O)CC21C` (stereo not given) [Loteprednol Etabonate], for which the LC retention time was 0.97 min.

On to `CN1CCN(C2=Nc3ccccc3Oc3ccc(Cl)cc32)CC1` [Loxapine], for which the LC retention time was 2.18 min.

Regarding `CC(C(=O)O)c1ccc(CC2CCCC2=O)cc1` (stereo not given) [Loxoprofen], the LC retention time was 1.09 min.

As for `O=c1[nH]c(=O)c2nccnc2[nH]1` [Lumazine], the LC retention time was 2.49 min.

As for `NCCCCC(N)C(=O)NCC(=O)O` (stereo not given) [Lys-Gly], the LC retention time was determined as 9.84 min.

For `CC(C)C(NC(=O)C(N)CCCCN)C(=O)O` (stereo not given) [Lys-Val], the LC retention time was 9.38 min.

As to `NCCCCC(N)C(=O)O` (stereo not given) [Lysine], the LC retention time was 9.54 min.

Consider `CC(C)c1ccc2c(c1)c(SC(C)(C)C)c(CC(C)(C)C(=O)O)n2Cc1ccc(Cl)cc1` [MK-886], for which the LC retention time was 0.96 min.

In the case of `NC(=O)C=CC(=O)O` [Maleamic acid], the LC retention time came out at 1.12 min.

For `Cc1occc(=O)c1O` [Maltol], the LC retention time turned out to be 1.32 min.

Regarding `OCC1OC(OC2C(CO)OC(O)C(O)C2O)C(O)C(O)C1O` (stereo not given) [Maltose], the LC retention time is 8.75 min.

On to `CNCCCC12CCC(c3ccccc31)c1ccccc12` [Maprotiline], for which the LC retention time was determined as 2.66 min.

With `CC1(C)SC2C(N=CN3CCCCCC3)C(=O)N2C1C(=O)O` (stereo not given) [Mecillinam], the LC retention time is 4.28 min.

In the case of `CC(=O)C1(O)CCC2C3CC(C)C4=CC(=O)CCC4(C)C3CCC21C` (stereo not given) [Medroxyprogesterone], the LC retention time is 1.01 min.

`CC(=O)OC1(C(C)=O)CCC2C3C=C(C)C4=CC(=O)CCC4(C)C3CCC21C` (stereo not given) [Megestrol Acetate]: the LC retention time amounted to 0.96 min.

Turning to `COc1ccc2[nH]cc(CCNC(C)=O)c2c1` [Melatonin], the LC retention time amounted to 1.24 min.

Take `CC1CCN(CCCC(=O)c2ccc(F)cc2)CC1` [Melperone]: the LC retention time was found to be 2.12 min.

Take `CC12CC3CC(C)(C1)CC(N)(C3)C2` [Memantine]: the LC retention time was determined as 4.24 min.

Take `COc1cc(C)nc(-n2nc(C)cc2OC)n1` [Mepirizole]: the LC retention time came out at 1.03 min.

As to `Cc1cccc(C)c1NC(=O)C1CCCCN1C` (stereo not given) [Mepivacaine], the LC retention time amounted to 2.96 min.

Take `CCCC(C)(COC(N)=O)COC(N)=O` [Meprobamate]: the LC retention time came out at 1.25 min.

Regarding `CN1CCCCC1CCN1c2ccccc2Sc2ccc(S(C)=O)cc21` (stereo not given) [Mesoridazine], the LC retention time amounted to 4.24 min.

As to `CN(C)C(=N)N=C(N)N` [Metformin], the LC retention time was found to be 5.44 min.

`CCC(=O)C(CC(C)N(C)C)(c1ccccc1)c1ccccc1` (stereo not given) [Methadone]: the LC retention time was determined as 2 min.

On to `CNC(C)Cc1ccccc1` (stereo not given) [Methamphetamine], for which the LC retention time was found to be 3.33 min.

In the case of `Cc1ccccc1-n1c(C)nc2ccccc2c1=O` [Methaqualone], the LC retention time was 1.1 min.

Regarding `CSCCC(N)C(=O)O` (stereo not given) [Methionine], the LC retention time is 7.37 min.

Turning to `CS(=O)CCC(N)C(=O)O` (stereo not given) [Methioninesulfoxide], the LC retention time was 8.62 min.

As to `C=CCC1(C(C)C#CCC)C(=O)NC(=O)N(C)C1=O` (stereo not given) [Methohexital], the LC retention time stood at 6.9 min.

On to `CN(Cc1cnc2nc(N)nc(N)c2n1)c1ccc(C(=O)NC(CCC(=O)O)C(=O)O)cc1` (stereo not given) [Methotrexate], for which the LC retention time was 7.67 min.

As for `COc1ccc(OC)c(C(O)C(C)N)c1` (stereo not given) [Methoxamine], the LC retention time turned out to be 4.75 min.

In the case of `CCC=CCC1C(=O)CCC1CC(=O)OC` (stereo not given) [Methyl jasmonate], the LC retention time came out at 1.04 min.

`CC(O)C(C)C(=O)O` (stereo not given) [Methyl-3-hydroxybutyric acid]: the LC retention time came to 6.22 min.

Regarding `COC(=O)c1cc(O)c(O)c(O)c1` [Methylgallate], the LC retention time was found to be 1.43 min.

For `COC(=O)CN` [Methylglycinate], the LC retention time worked out at 5.29 min.

Turning to `CC12CCC(=O)C=C1CCC1C2CCC2(C)C1CCC2(C)O` (stereo not given) [Methyltestosterone], the LC retention time worked out at 1.04 min.

`CNC(Cc1ccc(O)cc1)C(=O)[O-]` (stereo not given) [Methyltyrosinate]: the LC retention time turned out to be 4.23 min.

Take `CCC1(CC)C(=O)NCC(C)C1=O` (stereo not given) [Methyprylon]: the LC retention time is 1.18 min.

On to `Cc1ncc([N+](=O)[O-])n1CCO` [Metronidazole], for which the LC retention time worked out at 1.17 min.

Regarding `CCC(C)C(=O)OC1CCC=C2C=CC(C)C(CCC3CC(O)CC(=O)O3)C21` (stereo not given) [Mevastatin], the LC retention time amounted to 0.99 min.

As to `Cc1ncc2n1-c1ccc(Cl)cc1C(c1ccccc1F)=NC2` [Midazolam], the LC retention time amounted to 1.29 min.

Turning to `CC#CC1(O)CCC2C3CCC4=CC(=O)CCC4=C3C(c3ccc(N(C)C)cc3)CC21C` (stereo not given) [Mifepristone], the LC retention time was 1 min.

Consider `OCCN1CC(O)C(O)C(O)C1CO` (stereo not given) [Miglitol], for which the LC retention time was 8.12 min.

Consider `CCN(CC)C(=O)C1(c2ccccc2)CC1CN` (stereo not given) [Milnacipran], for which the LC retention time is 3.23 min.

For the compound `Cc1[nH]c(=O)c(C#N)cc1-c1ccncc1` [Milrinone], the LC retention time turned out to be 1.6 min.

In the case of `CN1CCN2c3ncccc3Cc3ccccc3C2C1` (stereo not given) [Mirtazapine], the LC retention time stood at 3.08 min.

For `O=C(NCCN1CCOCC1)c1ccc(Cl)cc1` [Moclobemide], the LC retention time is 2.03 min.

On to `NC(=O)CS(=O)C(c1ccccc1)c1ccccc1` (stereo not given) [Modafinil], for which the LC retention time is 1.27 min.

In the case of `CCCCCCCCC=CCCCCCCCC(=O)OCC(O)CO` (stereo not given) [Monoolein], the LC retention time came out at 1.19 min.

With `CCOc1cc(N)c(Cl)cc1C(=O)NCC1CN(Cc2ccc(F)cc2)CCO1` (stereo not given) [Mosapride], the LC retention time worked out at 1.24 min.

Turning to `COc1c(N2CC3CCCNC3C2)c(F)cc2c(=O)c(C(=O)O)cn(C3CC3)c12` (stereo not given) [Moxifloxacin], the LC retention time amounted to 4.69 min.

With `COc1nc(C)nc(Cl)c1NC1=NCCN1` [Moxonidine], the LC retention time was found to be 3.28 min.

On to `CC(OC1C(N)C(O)OC(CO)C1O)C(=O)O` (stereo not given) [Muramic acid], for which the LC retention time was 8.28 min.

Consider `CN(C)c1nc2c(ncn2C2OC(CO)C(O)C2O)c(=O)[nH]1` (stereo not given) [N2,N2-Dimethylguanosine], for which the LC retention time amounted to 5.62 min.
